Legend:
[1] = tested on: Scenedesmus acutus; assay: Phytotoxicity against Scenedesmus acutus assessed as inhibition of chlorophyll content after 16 hr by spectrophotometry relative to untreated control; format: functional
[2] = tested on: Scenedesmus acutus; assay: Growth inhibition of Scenedesmus acutus assessed as packed cell volume per ml of algal culture volume after 16 hr (reference value: 3.8 ul pcv/ml); format: functional

SMILES	inhibition (INH) [1] [%]	Activity [2] [uL/ml]
C#CCOc1cc(N2C(=O)C3=C(CCCC3)C2=O)c(F)cc1Cl	73.6	2.4
Fc1cc(Cl)c(OC(F)F)cc1-n1nc2c(c1Cl)CCCC2	89.7	1.5
N#Cc1cnn(-c2c(Cl)cc(C(F)(F)F)cc2Cl)c1N	61	2
COc1cc(-n2nc(C)c(C)c2C)c(F)cc1Cl	0	4.1
C/C=C/COc1cc(-n2nc(C)c(C)c2C)c(F)cc1Cl	17.2	3.5
C#CCOc1cc(-n2nc(C)c(Cl)c2C)c(Cl)cc1Cl	0	4
C#CCOc1cc(-n2nc(CC)c(Cl)c2CC)c(F)cc1Cl	30.3	2.7
Cc1nn(-c2cc(OC(C)C)c(Cl)cc2F)c(C)c1C	11.1	3.9
Cc1cc(C)n(-c2ccc(Cl)cc2F)n1	0	4.1
C#CCOc1cc(-n2nc(C)c(Cl)c2C)c(Cl)cc1F	26.7	3.1
C#CCOc1cc(-n2nc(C)c(Cl)c2C)c(F)cc1Cl	38.5	2.7
Cc1nn(-c2cc(OC(C)C)c(Cl)cc2F)c(C)c1[N+](=O)[O-]	17.7	3.5
C#CCOc1cc(-n2nc(C)c([N+](=O)[O-])c2C)c(F)cc1Cl	46	2.5
O=C1C2=C(CCCC2)C(=O)N1c1ccc(Cl)cc1 [CHLOROPHTHALIUM]	72.3	2.5
CCOc1cc(Oc2ccc(C(F)(F)F)cc2Cl)ccc1[N+](=O)[O-] [OXYFLUORFEN]	92.2	1.4

From ChEMBL document CHEMBL3045138, “Peroxidizing Phytotoxic Activity of Pyrazoles” (J Pestic Sci, 1995)
